We go through two molecules from patent US11369596B2, “Methods of treating a neurodegenerative disease in a mammal in need thereof” (Thomas Jefferson University, priority 2013, dated 2022).

The subject of data set [1] is SOD1-G93A mice. As for the experimental part: Drug Treatment and Survival Analysis:
Baseline and study measures were recorded for weight, grip strength, food consumption, and survival. Determination of end-stage was the inability for a mouse to right itself after 30 seconds of being placed on its side.

Data set [2] concerns liver of SOD1-G93A mice. The settings on record: mouse, in vivo. As for the experimental part:
Periodic Acid Schiff Staining:
Saline perfused liver was postfixed with 4% paraformaldehyde for 24 h followed by 24 h incubation in 30% sucrose solution, embedded in OCT solution, and stored at −80° C. until sectioned (10 μm thickness). Sections were hydrated with water, immersed in PAS solutions (Sigma; 395) for 5 min at room temperature, and washed in water. Sections were immersed for 4 min in Schiff's reagent and washed in water for 5 min. Sections were counterstained with hematoxylin solution, dehydrated in ethanol and HemoD solution, mounted, and imaged.

Data set [3] deals with SOD1-G93A mice. In words: Compound muscle action potential (CMAP) recordings. Format: in vivo. Particulars: 140 day SOD1-G93A mice. An excerpt: Compound Muscle Action Potential (CMAP) Recordings:
Mice were anesthetized with 1% isoflurane and 0.5% oxygen. Following dermatomoty, stainless steel-stimulating needle electrodes were inserted at the sciatic notch, near the sciatic nerve. A ground electrode was placed subcutaneously in the back, and a reference electrode placed subcutaneously at the ankle. The sciatic nerve was stimulated (0.2 ms duration; 1.6 mV amplitude) and the response recorded via a needle electrode inserted into the plantar muscle in the medial half of the foot, following the line connecting the first and fifth tarsal/metatarsal joints. Data was collected using ADI Powerlab 8/30 stimulator and BioAMP amplifier (ADInstruments, Colorado Springs, Colo.) and analyzed using Scope 3.5.6 (ADInstruments). The compound muscle action potential (M-wave) amplitude was measured from baseline to peak. Data was averaged between left and right hind limb traces.

Data set [4] concerns ALS. Particulars: ALS patients; cited from earlier work.

Take `COc1cc2c(cc1OC)CN(CCc1ccc(NC(=O)c3cccc4c(=O)c5cccc(OC)c5[nH]c34)cc1)CC2` [elacridar, N-[4-[2-(3,4-dihydro-6,7-dimethoxy-2(1H)-isoquinolinyl)ethyl]phenyl]-9,10-dihydro-5-methoxy-9-oxo-4-acridine carboxamide]: the “effect on disease progression / survival” value in data set [1] (chronic elacridar alone, beginning at disease onset, SOD1-G93A mice) is listed as “did not alter disease progression”. In addition, in data set [1] (mouse, in vivo), the “safety of chronic treatment” value is given as “safe”. The “liver toxicity (periodic acid Schiff staining)” value in data set [2] is “did not cause liver toxicity”.

Turning to `Nc1nc2ccc(OC(F)(F)F)cc2s1` [riluzole, 6-(trifluoromethoxy)benzothiazol-2-amine], the CMAP peak amplitude in data set [3] is on record as 5.00±0.67 mV. Further, the “slowing of disease progression” value in data set [4] is given as 3-9 months.
